In the supplement of paper PMC10307832:

Experiments:
Experiment in all cases: relative viability (nuclei count vs DMSO), 5 days (fraction); higher = more cells survive
[1] = compound: CC1=CC=C(C=C1)C(=O)CN2C3=C(CCCC3)SC2=N [Pifithrin_alpha] + Cc1nc(NC(=O)N2CCC[C@H]2C(N)=O)sc1-c1ccnc(C(C)(C)C(F)(F)F)c1 [Alpelisib] (partner 2 µM)
Summary of the method: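 Dosing by pin tool came one day after lung cancer cell lines were seeded in 1536-well plates, using either one drug or a fixed anchor-drug dose plus five library-drug doses (not always all listed) in √10 steps. After 5 days, nuclei were counted on 4× images. Relative viability is treated-well nuclei count divided by vehicle-well nuclei count, and values are medians of duplicate plates.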

Bemcentinib = compound: Nc1nc(Nc2ccc3c(c2)CC[C@@H](N2CCCC2)CC3)nn1-c1cc2c(nn1)-c1ccccc1CCC2 [Bemcentinib]
Summary of the method: (§1)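 Following overnight incubation at 37 °C, lung cancer cell lines in 1536-well plates were pinned with five library-drug doses (not always all listed) in √10 steps on vehicle-anchored plates. The cells then spent 5 days without medium change before a combined fix, permeabilisation and Hoechst stain, 4× imaging and MetaXpress nuclear counts. Viability is the treated-to-vehicle ratio of nuclei, taken as the median across plates. Only plates with control CV below 25% and at least one doubling passed.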

Pifithrin_alpha = compound: CC1=CC=C(C=C1)C(=O)CN2C3=C(CCCC3)SC2=N [Pifithrin_alpha]
Summary of the method: as §1

Axitinib = compound: CNC(=O)c1ccccc1Sc1ccc2c(/C=C/c3ccccn3)n[nH]c2c1 [Axitinib]
Summary of the method: as §1

NCI-H2126
relative viability ([1]; first compound 1 µM): 0.714 | relative viability ([1]; first compound 3.162 µM): 0.714 | relative viability ([1]; first compound 10 µM): 0.685 | relative viability ([1]; first compound 31.62 µM): 0.623 | relative viability ([1]; first compound 100 µM): 0.655 | relative viability (Bemcentinib; 0.04 µM): 1 | relative viability (Bemcentinib; 0.1265 µM): 1.03 | relative viability (Bemcentinib; 0.4 µM): 1.03 | relative viability (Bemcentinib; 1.265 µM): 1.04 | relative viability (Bemcentinib; 4 µM): 1.11 | relative viability (Pifithrin_alpha; 1 µM): 0.638 | relative viability (Pifithrin_alpha; 3.162 µM): 0.862 | relative viability (Pifithrin_alpha; 10 µM): 0.884 | relative viability (Pifithrin_alpha; 31.62 µM): 0.85 | relative viability (Pifithrin_alpha; 100 µM): 0.822 | relative viability (Axitinib; 0.005 µM): 0.979 | relative viability (Axitinib; 0.01581 µM): 0.991 | relative viability (Axitinib; 0.05 µM): 0.993 | relative viability (Axitinib; 0.1581 µM): 1 | relative viability (Axitinib; 0.5 µM): 0.953

NCI-H1944
relative viability ([1]; first compound 1 µM): 0.866 | relative viability ([1]; first compound 3.162 µM): 0.762 | relative viability ([1]; first compound 10 µM): 0.72 | relative viability ([1]; first compound 100 µM): 0.75 | relative viability (Bemcentinib; 0.04 µM): 0.968 | relative viability (Bemcentinib; 0.1265 µM): 1.05 | relative viability (Bemcentinib; 0.4 µM): 0.993 | relative viability (Bemcentinib; 1.265 µM): 0.941 | relative viability (Bemcentinib; 4 µM): 0.988 | relative viability (Pifithrin_alpha; 1 µM): 0.898 | relative viability (Pifithrin_alpha; 3.162 µM): 0.826 | relative viability (Pifithrin_alpha; 10 µM): 0.781 | relative viability (Pifithrin_alpha; 31.62 µM): 0.451 | relative viability (Pifithrin_alpha; 100 µM): 0.71 | relative viability (Axitinib; 0.005 µM): 1.04 | relative viability (Axitinib; 0.01581 µM): 0.952 | relative viability (Axitinib; 0.05 µM): 1.02 | relative viability (Axitinib; 0.1581 µM): 0.943 | relative viability (Axitinib; 0.5 µM): 0.761

NCI-H1623
relative viability (Bemcentinib; 0.04 µM): 0.956 | relative viability (Bemcentinib; 0.1265 µM): 0.935 | relative viability (Bemcentinib; 0.4 µM): 0.971 | relative viability (Bemcentinib; 1.265 µM): 1.03 | relative viability (Bemcentinib; 4 µM): 0.929 | relative viability (Pifithrin_alpha; 1 µM): 0.905 | relative viability (Pifithrin_alpha; 3.162 µM): 0.924 | relative viability (Pifithrin_alpha; 10 µM): 0.834 | relative viability (Pifithrin_alpha; 31.62 µM): 0.677 | relative viability (Pifithrin_alpha; 100 µM): 0.803 | relative viability (Axitinib; 0.005 µM): 1.12 | relative viability (Axitinib; 0.01581 µM): 0.945 | relative viability (Axitinib; 0.05 µM): 0.884 | relative viability (Axitinib; 0.1581 µM): 1.02 | relative viability (Axitinib; 0.5 µM): 0.984

NCI-H2342
relative viability (Bemcentinib; 0.04 µM): 0.949 | relative viability (Bemcentinib; 0.1265 µM): 1.06 | relative viability (Bemcentinib; 0.4 µM): 1.01 | relative viability (Bemcentinib; 1.265 µM): 0.932 | relative viability (Bemcentinib; 4 µM): 1.01 | relative viability (Pifithrin_alpha; 1 µM): 0.916 | relative viability (Pifithrin_alpha; 3.162 µM): 0.928 | relative viability (Pifithrin_alpha; 10 µM): 0.884 | relative viability (Pifithrin_alpha; 31.62 µM): 0.976 | relative viability (Pifithrin_alpha; 100 µM): 0.929 | relative viability (Axitinib; 0.005 µM): 0.975 | relative viability (Axitinib; 0.01581 µM): 1.14 | relative viability (Axitinib; 0.05 µM): 1.01 | relative viability (Axitinib; 0.1581 µM): 1.09 | relative viability (Axitinib; 0.5 µM): 0.775

NCI-H1650
relative viability (Bemcentinib; 0.04 µM): 0.783 | relative viability (Bemcentinib; 0.1265 µM): 1.01 | relative viability (Bemcentinib; 0.4 µM): 0.974 | relative viability (Bemcentinib; 1.265 µM): 0.978 | relative viability (Bemcentinib; 4 µM): 0.861 | relative viability (Pifithrin_alpha; 1 µM): 0.889 | relative viability (Pifithrin_alpha; 3.162 µM): 0.811 | relative viability (Pifithrin_alpha; 10 µM): 0.787 | relative viability (Pifithrin_alpha; 31.62 µM): 0.607 | relative viability (Pifithrin_alpha; 100 µM): 0.813 | relative viability (Axitinib; 0.005 µM): 1.07 | relative viability (Axitinib; 0.01581 µM): 0.805 | relative viability (Axitinib; 0.05 µM): 1.05 | relative viability (Axitinib; 0.1581 µM): 0.822 | relative viability (Axitinib; 0.5 µM): 1.15

NCI-H1648
relative viability (Bemcentinib; 0.04 µM): 0.85 | relative viability (Bemcentinib; 0.1265 µM): 1.06 | relative viability (Bemcentinib; 0.4 µM): 1.07 | relative viability (Bemcentinib; 1.265 µM): 0.724 | relative viability (Bemcentinib; 4 µM): 0.694 | relative viability (Pifithrin_alpha; 1 µM): 0.791 | relative viability (Pifithrin_alpha; 3.162 µM): 0.852 | relative viability (Pifithrin_alpha; 10 µM): 0.869 | relative viability (Pifithrin_alpha; 31.62 µM): 0.625 | relative viability (Pifithrin_alpha; 100 µM): 0.691 | relative viability (Axitinib; 0.005 µM): 1.03 | relative viability (Axitinib; 0.01581 µM): 0.984 | relative viability (Axitinib; 0.05 µM): 0.61 | relative viability (Axitinib; 0.1581 µM): 0.882 | relative viability (Axitinib; 0.5 µM): 0.632

ChaGo-K-1
relative viability (Bemcentinib; 0.04 µM): 1.01 | relative viability (Bemcentinib; 0.1265 µM): 0.966 | relative viability (Bemcentinib; 0.4 µM): 1.03 | relative viability (Bemcentinib; 1.265 µM): 0.938 | relative viability (Bemcentinib; 4 µM): 0.929 | relative viability (Pifithrin_alpha; 1 µM): 0.882 | relative viability (Pifithrin_alpha; 3.162 µM): 0.987 | relative viability (Pifithrin_alpha; 10 µM): 1 | relative viability (Pifithrin_alpha; 31.62 µM): 0.842 | relative viability (Pifithrin_alpha; 100 µM): 1.05 | relative viability (Axitinib; 0.005 µM): 1.06 | relative viability (Axitinib; 0.01581 µM): 1.02 | relative viability (Axitinib; 0.05 µM): 1.05 | relative viability (Axitinib; 0.1581 µM): 0.922 | relative viability (Axitinib; 0.5 µM): 0.936

SW 900
relative viability (Bemcentinib; 0.04 µM): 0.772 | relative viability (Bemcentinib; 0.1265 µM): 0.97 | relative viability (Bemcentinib; 0.4 µM): 0.913 | relative viability (Bemcentinib; 1.265 µM): 0.742 | relative viability (Bemcentinib; 4 µM): 0.871 | relative viability (Pifithrin_alpha; 1 µM): 0.706 | relative viability (Pifithrin_alpha; 3.162 µM): 0.643 | relative viability (Pifithrin_alpha; 10 µM): 0.75 | relative viability (Pifithrin_alpha; 31.62 µM): 0.648 | relative viability (Pifithrin_alpha; 100 µM): 0.653 | relative viability (Axitinib; 0.005 µM): 0.929 | relative viability (Axitinib; 0.01581 µM): 0.584 | relative viability (Axitinib; 0.05 µM): 0.724 | relative viability (Axitinib; 0.1581 µM): 0.92 | relative viability (Axitinib; 0.5 µM): 1.01

NCI-H522
relative viability (Bemcentinib; 0.04 µM): 0.927 | relative viability (Bemcentinib; 0.1265 µM): 0.96 | relative viability (Bemcentinib; 0.4 µM): 1.06 | relative viability (Bemcentinib; 1.265 µM): 0.9 | relative viability (Bemcentinib; 4 µM): 0.879 | relative viability (Pifithrin_alpha; 1 µM): 0.79 | relative viability (Pifithrin_alpha; 3.162 µM): 1.12 | relative viability (Pifithrin_alpha; 10 µM): 0.947 | relative viability (Pifithrin_alpha; 31.62 µM): 0.85 | relative viability (Pifithrin_alpha; 100 µM): 0.972 | relative viability (Axitinib; 0.005 µM): 0.914 | relative viability (Axitinib; 0.01581 µM): 0.969 | relative viability (Axitinib; 0.05 µM): 0.996 | relative viability (Axitinib; 0.1581 µM): 0.882 | relative viability (Axitinib; 0.5 µM): 0.693
